Source: article PMC5746060, “General and Modular Strategy for Designing Potent, Selective, and Pharmacologically Compliant Inhibitors of Rhomboid Proteases” (Cell Chemical Biology, 2017)
Several values for one entry are separate records, joined by “and”; a condition that tells them apart may be missing. Identical values can stand only once. Like-named read-outs stand apart in the source and are kept apart here. Starred links: 1 amine or outer side, 2 acyl side, 3 side chain; linkers in the order of their positions; H or OH if unused. Non-standard residues stand in square brackets, D forms with d. Residues, ends and D or L forms follow the SMILES beside them. *: point of attachment. NH(4-phenylbutyl) = c1ccc(CCCCN*)cc1; X1 = C[C@H](N[*:1])C(=O)C(=O)[*:2]; NHPhenethyl = c1ccc(CCN*)cc1

Key:
[1] = target: T1, rhomboid protease GlpG (Escherichia coli, UniProt P09391); assay: progress-curve analysis of slow-binding inhibition of GlpG (Ki, kon, koff, modality); assay type: biochemical; conditions: for koff: Table 1; for Ki: true inhibitory constant, equals Kiapp (non-competitive)
T1 construct: made in house; host or cells: E. coli C41(DE3)
Procedure: Figure 4 Mechanism of Inhibition of Rhomboid Protease GlpG by Peptidyl Ketoamides Analyzed Using Fluorogenic Transmembrane Peptide Substrates (A) Progress curves in the presence of increasing concentrations of compound 10 show biphasic character, which is typical for slow-binding inhibitors ([Copeland, 2013a], [Morrison, 1982]). GlpG (0.5 nM) was incubated with 25 μM substrate KSp93 in the presence of 0.05% (w/v) DDM and 0–1,333 nM 10. Fluorescence at 493 nm was followed to monitor substrate cleavage. (B) Biphasic progress curves characterized by an initial reaction rate (vi) and steady state reaction rate (vs). The progress curve at 1,333 nM compound 10 from the experiment in (A) is shown in detail, and both reaction rates obtained from non-linear regression into Equation (1) are shown as dotted lines. (C) Reversibility of inhibition by ketoamides was assessed by the rapid dilution method ([Harper et al., 1985], [Harper and Powers, 1985]). […] This solution was then rapidly diluted 100-fold either into the reaction buffer containing 10 μM substrate KSp64 ([Ticha et al., 2017]) (yielding final 10 nM inhibitor) or into the reaction buffer with 10 μM substrate KSp64 and 1,000 nM 10. For comparison, we used β-lactam L29 ([Pierrat et al., 2011]) at 1 μM and isocoumarin JLK6 ([Vinothkumar et al., 2010]) at 10 μM as known reversible and irreversible inhibitors of rhomboid proteases, respectively. Activity recovery was followed by measuring fluorescence over the course of 120 min with excitation at 553 nm and emission at 583 nm. (D) Progress curves of KSp93 cleavage at increasing concentrations of 10 measured under (A) were analyzed by non-linear regression as described for slow-binding inhibition ([Copeland, 2013a], [Morrison, 1982]) using GraphPad Prism version 7.02 for Windows (GraphPad Software, La Jolla, California, USA) to yield the rate constant for the onset of inhibition, kobs. […] Michaelis curves at the indicated inhibitor concentrations were measured by plotting vS (measured as in Figure 4B) against substrate concentration using 1 nM GlpG, 0.15% (w/v) DDM and highly sensitive substrate KSp96. […] The apparent inhibitory constants Kiapp (blue-red striped columns) and the constituent rate constants kon (red columns) and koff (blue columns) were determined from progress curve analysis as shown in (A and C) (note that Kiapp = koff/kon). […] TEXT PRINTED IN THE PICTURE: (D) compound 10: Ki^app = (123±47) nM; kon = (3.4±0.2)·10^-5 (nM^-1·min^-1); koff = (4.2±1.4)·10^-3 (min^-1) DOUBTS OF THE COPYIST ABOUT THIS PICTURE: compound 10, kon: the exponent is in very small print, read as -5 but could be -6 or -8 / compound 10, koff: the exponent is in very small print, read as -3 but could be -5 […]

[2] = target: T2, EcGlpG (Escherichia coli, UniProt P09391); assay: activity-based probe competition assay, rhomboid panel; assay type: biochemical, E. coli; conditions: 50 μM and 0.5 μM; outcompeted the ABP even at 500 nM
T2 construct: made in house; host or cells: E. coli C41(DE3)
Description: (§1) Any enzyme inhibitors to be used as specific tools for cell biology or as starting points for drug development must show sufficient level of selectivity toward their intended target. This is particularly important for compounds that react with the catalytic nucleophile common to many serine hydrolases. […] To map the selectivity of peptidyl ketoamides more objectively and widely, we employed activity-based probe (ABP) competition assays that enable a more general and substrate-independent measurement of inhibitory potency, because they rely solely on the competition between a fluorescently labeled activity-based probe and the tested inhibitor ([Nguyen et al., 2015], [Serim et al., 2012]). […]
(§2) Figure 5 Selectivity of Peptidyl Ketoamides (A) Selectivity of compounds 9, 10, and 11 for nine rhomboid proteases was profiled using activity-based probe competition assay at 50 μM and 0.5 μM concentration. […] (B) Selectivity of compounds 9, 10, and 11 against human serine hydrolases was analyzed using EnPlex as described ([Bachovchin et al., 2014]).
(§3) For inhibitor selectivity profiling against rhomboid proteases ([Wolf et al., 2015]), 400 ng of a purified protein preparation of E. coli GlpG was diluted in 30 μL of reaction buffer (20 mM HEPES, pH 7.4, with 0.05% (w/v) DDM). […] Gels were scanned on a Typhoon Trio+ and analyzed using ImageJ. […]

[3] = system: VcROM; assay: as above; assay type: biochemical, Vibrio cholerae; conditions: 50 μM and 0.5 μM; outcompeted the ABP even at 500 nM
Description: as §1, §2, §3

T1 sequence (P09391 whole entry): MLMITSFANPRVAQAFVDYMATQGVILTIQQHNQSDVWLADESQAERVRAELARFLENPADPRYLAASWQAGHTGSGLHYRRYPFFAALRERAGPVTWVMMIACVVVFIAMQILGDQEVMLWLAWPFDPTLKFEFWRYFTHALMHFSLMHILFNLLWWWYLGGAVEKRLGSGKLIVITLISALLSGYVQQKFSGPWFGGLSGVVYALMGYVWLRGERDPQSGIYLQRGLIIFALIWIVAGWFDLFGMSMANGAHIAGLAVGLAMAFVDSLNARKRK
T2 sequence (P09391 whole entry): as above

| SMILES | koff [1] [s⁻¹] | Ki ([1]; read-out: Ki) | competition with ABP labeling of EcGlpG [2] | competition with ABP labeling of VcROM [3] | Ki ([1]; Ki) [nM] |
| --- | --- | --- | --- | --- | --- |
| CC(=O)N[C@@H](CCCNC(=N)N)C(=O)N[C@H](C(=O)N[C@@H](CCCNC(=N)N)C(=O)N[C@@H](Cc1c[nH]cn1)C(=O)N[C@@H](C)C(=O)C(=O)NCCc1ccccc1)C(C)C [compound 9, Ac-RVRHA-CONH-phenylethyl] (Ac-RVRH[X1]-NHPhenethyl) | 0.0002 | 219 nM and 220 nM | potently competed | potently competed |  |
| CC(=O)N[C@@H](CCCNC(=N)N)C(=O)N[C@H](C(=O)N[C@@H](CCCNC(=N)N)C(=O)N[C@@H](Cc1c[nH]cn1)C(=O)N[C@@H](C)C(=O)C(=O)NCCCCc1ccccc1)C(C)C [compound 11, Ac-RVRHA-CONH-phenylbutyl] (Ac-RVRH[X1]-{NH(4-phenylbutyl)}) | 6.5e-05 |  | potently competed | potently competed | 45 ± 8 |
